Patent publication US4094966A, “Iodobenzene derivatives and X-ray contrast media containing the same” (priority 1974, dated 1978)

Assays:
[1] = Biliary clearance test in cats; type: in vivo; set-up: scale not given here
Procedure: This test was conducted in male or female adult cats weighing 3-4 kg.
The test material was injected intravenously, at a dosage of 0.10 g/kg iodine at the level of the internal saphenous vein. Clearance of the material was monitored by X-ray control.
X-ray pictures visualizing the gall bladder and the bladder were taken at the following times: 30 minutes, 1 hour, 2 hours, 3 hours, 4 hours, 5 hours, 6 hours.

mice = assay: Acute toxicity determination, intravenous toxicity in mice; type: in vivo, mice (Swiss origin, IOPS mice of OFI strain); settings: 24 hours
Procedure: Intravenous toxicity determination was effected in Swiss origin, IOPS mice of OFI strain.
Each dosage level was injected to a lot of 10 mice comprising 5 male and 5 female mice.
Injections were made manually, in the caudal vein, at a rate of 2 ml/minute.
Death rate during the 24 hours after injection was recorded.

[2] = Osmolality determination (FISKE osmometer); type: physicochemical; settings: solutions containing 28% iodine; methylglucamine salts; extrapolation from successive dilutions
Procedure: Osmolality is determined by extrapolation of the values obtained on successive dilutions of solutions containing 28% or 38% iodine.
Osmolality readings are made with a FISKE Model 230/D/330 D osmometer. This apparatus indicates this measurement as milliosmoles per kg of solution. Its operation is based on the principles of cryoscopy. The determinations were made with solutions containing 28% iodine.

femoral artery = assay: Effect on the femoral rate of flow (peripheral vasodilatation); type: in vivo, mongrels
Procedure: This test was carried out in Nembutal-anesthetized male or female 7-12 mongrels.
Nembutal was used at a dosage of 30 mg/kg, with Vetranquil pre-medication, (overall intravenous injection of 2.5 mg), respiration was spontaneous.
Rate of flow variations were recorded at the level of the right or left fermoral artery, by means of a Statham electromagnetic sensor.
The injections were made in a collateral of the fermoral artery, downstream of the sensor, by means of a catheter mounted by the retrograde route, so as not to perturb the blood flow.
The injections were made under a constant volume of 1.5 ml administered within 3-5 seconds.
The same volume of an iostonic sodium chloride solution was also injected.

[3] = i.v., 0.10 g I/kg, 28% I, Mgl salt
[4] = 1.5 ml into collateral of femoral artery, 28% I, Mgl salt

Question: For `CNC(=O)c1c(I)c(NC(=O)CCCNC(=O)c2c(I)cc(I)c(N(C)C(C)=O)c2I)c(I)c(C(=O)O)c1I` [Compound 11, 2,4,6-triiodo-3-N-methylcarbamyl-5-(2,4,6-triiodo-3-N-methylacetamido-benzoyl)-γ-aminobutyrylaminobenzoic acid], which “Biliary clearance in cat, i.v.” value [1, 3] is on record?
Answer: +++

Question: What about the “Acute toxicity in mice, i.v.” value (mice; 28% I, Mgl salt) of the same molecule?
Answer: 2.3 grams I/kg

Question: And the Osmolality [2]?
Answer: 390 mosm/kg

Question: And the “Peripheral vasodilatation, femoral rate of flow” value (“Peripheral vasodilatation” for short) (femoral artery; [4])?
Answer: ++++

Question: For `CNC(=O)c1c(I)c(NC(=O)CNC(=O)c2c(I)c(NC(=O)C(O)C(O)C(O)C(O)CO)c(I)c(C(=O)NC)c2I)c(I)c(C(=O)O)c1I` (centres unmarked) [Compound 35, 2,4,6-triiodo-3-N-methylcarbamyl-5-(2,4,6-triiodo-3-N-methylcarbamyl-5-gluconylamino-benzoyl)glycylamino-benzoic acid], which “Biliary clearance in cat, i.v.” value [1, 3] is on record?
Answer: 0

Question: And the “Acute toxicity in mice, i.v.” value (mice; 28% I, Mgl salt)?
Answer: 8 grams I/kg

Question: What about the “Peripheral vasodilatation” value (femoral artery; [4]) of the same molecule?
Answer: +

Question: With `CC(=O)Nc1c(I)c(NC(=O)CNC(=O)c2c(I)c(NC(C)=O)c(I)c(N(C)C(C)=O)c2I)c(I)c(C(=O)O)c1I` [Compound 20, 2,4,6-triiodo-3-acetamido-5-(2,4,6-triiodo-3-N-methylacetamido-5-acetamido-benzoyl)-glycylaino-benzoic acid] as the molecule, how does the “Acute toxicity in mice, i.v.” value (mice; 28 and 38% I, Na salt) read?
Answer: 7.5 grams I/kg

Question: And the Osmolality [2]?
Answer: 755 mosm/kg

Question: What about the “Peripheral vasodilatation” value (femoral artery; 1.5 ml into collateral of femoral artery, 28 and 38% I, Na salt) of the same molecule?
Answer: +

Question: With `CNC(=O)c1c(I)c(NC(=O)CNC(=O)c2c(I)c(NC(=O)CNC(=O)c3c(I)c(NC(C)=O)c(I)c(C(=O)NC)c3I)c(I)c(N(C)C(C)=O)c2I)c(I)c(C(=O)O)c1I` [Compound 16, 2,4,6-triiodo-3-N-methylcarbamyl-5-[2,4,6-triiodo-3-N-methylacetamido-5-(2,4,6-triiodo-3-N-methylcarbamyl-5-acetamido-benzoyl)glycylamino-benzoyl]-glycylamino-benzoic acid] as the molecule, how does the “Biliary clearance in cat, i.v.” value ([1]; in vivo, iv) read?
Answer: 0

Question: What about the Osmolality [2] of the same molecule?
Answer: 250 mosm/kg

Question: What about the “Peripheral vasodilatation” value (femoral artery; in vivo) of the same molecule?
Answer: +

Question: What does the source list for `CNC(=O)c1c(I)c(NC(C)=O)c(I)c(C(=O)NCC(=O)N(C)c2c(I)cc(I)c(C(=O)O)c2I)c1I` [Compound 21, 2,4,6-triiodo-3-(2,4,6-triiodo-3-N-methylcarbamyl-5-acetamido-benzoyl)glycyl-N-methylamino-benzoic acid]?
Answer: Biliary clearance in cat, i.v. ([1]; i.v., 0.10 g I/kg, 20% I, Mgl salt): +++; Acute toxicity in mice, i.v. (mice; 20% I, Mgl salt): 4-5 grams I/kg; Osmolality [2]: 580 mosm/kg; Peripheral vasodilatation, femoral rate of flow (femoral artery; 1.5 ml into collateral of femoral artery, 20% I, Mgl salt): ++++

Question: For `CNC(=O)c1c(I)c(C(=O)NCC(=O)Nc2c(I)cc(I)c(C(=O)O)c2I)c(I)c(N(C)C(C)=O)c1I` [Compound 19, 2,4,6-triiodo-5-(2,4,6-triiodo-3-N-methylcarbamyl-5-N-methylacetamido-benzoyl) glycylamino-benzoic acid], which “Biliary clearance in cat, i.v.” value [1, 3] is on record?
Answer: ++++

Question: What about the “Acute toxicity in mice, i.v.” value (mice; 28% I, Mgl salt) of the same molecule?
Answer: 4 grams I/kg

Question: And the Osmolality [2]?
Answer: 500 mosm/kg

Question: What about the “Peripheral vasodilatation” value (femoral artery; [4]) of the same molecule?
Answer: ++++

Question: Which “Biliary clearance in cat, i.v.” value ([1]; i.v., 0.10 g I/kg, 38% I, mixed Mgl and Na salt) does the source give for `CC(=O)Nc1c(I)c(NC(C)=O)c(I)c(C(=O)O)c1I` [d, 2,4,6-Triiodo-3,5-bis-(acetamido)-benzoic acid, reference compound] here?
Answer: 0

Question: And the “Acute toxicity in mice, i.v.” value (mice; 38% I, mixed Mgl and Na salt)?
Answer: 5.7 grams I/kg

Question: What about the “Peripheral vasodilatation” value (femoral artery; in vivo) of the same molecule?
Answer: +++

Question: What does the source list for `CNC(=O)c1c(I)c(NC(=O)CCCNC(=O)c2c(I)c(C(=O)NCCO)c(I)c(N(C)C(C)=O)c2I)c(I)c(C(=O)O)c1I` [Compound 7, 2,4,6-triiodo-3-N-methylcarbamyl-5-(2,4,6-triiodo-3-N-hydroxyethylcarbamyl-5-N-methylacetamido-benzoyl)γ-aminobutyrylamino-benzoic acid]?
Answer: Biliary clearance in cat, i.v. [1, 3]: 0; Acute toxicity in mice, i.v. (mice; 28% I, Mgl salt): 5 grams I/kg; Osmolality [2]: 525 mosm/kg; Peripheral vasodilatation, femoral rate of flow (femoral artery; [4]): ++

Question: For `CNC(=O)c1c(I)c(NC(=O)CNC(=O)c2c(I)c(NC(=O)CNC(=O)c3c(I)c(C(=O)NC)c(I)c(N(C)C(C)=O)c3I)c(I)c(N(C)C(C)=O)c2I)c(I)c(C(=O)O)c1I` [Compound 17, 2,4,6-triiodo-3-N-methylcarbamyl-5-[2,4,6-triiodo-3-N-methylacetamido-5-(2,4,6-triiodo-3-N-methylcarbamyl-5-N-methylacetamido-benzoyl)glycyl-aminobenzoyl]-glycyl-amino-benzoic acid], which “Biliary clearance in cat, i.v.” value ([1]; in vivo, iv) is on record?
Answer: 0

Question: And the Osmolality [2]?
Answer: 200 mosm/kg

Question: And the “Peripheral vasodilatation” value (femoral artery; in vivo)?
Answer: ++

Question: Which “Biliary clearance in cat, i.v.” value [1, 3] does the source give for `CNC(=O)c1c(I)c(NC(=O)C(O)C(O)C(O)C(O)CO)c(I)c(C(=O)NCC(=O)Nc2c(I)c(C(=O)O)c(I)c(C(=O)NCCO)c2I)c1I` (centres unmarked) [Compound 36, 2,4,6-triiodo-3-hydroxyethylcarbamyl-5-(2,4,6-triiodo-3-N-methylcarbamyl-5-glyconylamino-benzoyl) glycylamino-benzoic acid] here?
Answer: 0

Question: What about the “Acute toxicity in mice, i.v.” value (mice; 28% I, Mgl salt) of the same molecule?
Answer: 8 grams I/kg

Question: And the “Peripheral vasodilatation” value (femoral artery; [4])?
Answer: ++

Question: For `CNC(=O)c1c(I)c(C(=O)NC(C)C(=O)Nc2c(I)cc(I)c(C(=O)O)c2I)c(I)c(N(C)C(C)=O)c1I` (stereo not drawn) [Compound 23, 2,4,6-triiodo-3-(2,4,6-triiodo-3-N-methyl-carbamyl-5-N-methylacetamido-benzoyl)-α-aminoproionylamino-benzoic acid], which “Biliary clearance in cat, i.v.” value [1, 3] is on record?
Answer: ++++

Question: What about the “Acute toxicity in mice, i.v.” value (mice; 28% I, Mgl salt) of the same molecule?
Answer: 3.5 grams I/kg

Question: And the Osmolality [2]?
Answer: 535 mosm/kg

Question: And the “Peripheral vasodilatation” value (femoral artery; [4])?
Answer: +++

Question: With `CNC(=O)c1c(I)c(NC(C)=O)c(I)c(C(=O)NCC(=O)Nc2c(I)c(C(=O)O)c(I)c(N(C)C(C)=O)c2I)c1I` [Compound 26, 12,4,6-triiodo-3-N-methylacetamido-5-(2,4,6-triiodo-3-N-methylcarbamyl-5-acetamido-benzoyl)-glycylamino-benzoic acid] as the molecule, how does the “Biliary clearance in cat, i.v.” value ([1]; i.v., 0.10 g I/kg, 38% I, Na salt) read?
Answer: 0

Question: What about the “Acute toxicity in mice, i.v.” value (mice; 38% I, Na salt) of the same molecule?
Answer: 13 grams I/kg

Question: What about the Osmolality [2] of the same molecule?
Answer: 500 mosm/kg

Question: What about the “Peripheral vasodilatation” value (femoral artery; 1.5 ml into collateral of femoral artery, 38% I, Na salt) of the same molecule?
Answer: ++

Question: With `CNC(=O)c1c(I)c(NC(C)=O)c(I)c(C(=O)NCC(=O)N(C)c2c(I)c(C(=O)O)c(I)c(C(=O)NCCO)c2I)c1I` [Compound 38, 2,4,6-triiodo-3-N-hydroxyethylcarbamyl-5-(2,4,6-triiodo-3-N-methylcarbamyl-5-acetamido-benzoyl)-glycyl-N-methylamino-benzoic acid] as the molecule, how does the Osmolality [2] read?
Answer: 635 mosm/kg

Question: For `O=C(CCCCC(=O)Nc1c(I)cc(I)c(C(=O)O)c1I)Nc1c(I)cc(I)c(C(=O)O)c1I` [e, 3,3'-Adipoyldiimino-bis(2,4,6-triiodobenzoic) acid, reference compound], which “Biliary clearance in cat, i.v.” value ([1]; in vivo, iv) is on record?
Answer: ++++

Question: What about the “Acute toxicity in mice, i.v.” value (mice; 28% I, Mgl salt) of the same molecule?
Answer: 2 grams I/kg

Question: And the “Peripheral vasodilatation” value (femoral artery; [4])?
Answer: ++++

Question: With `CC(=O)Nc1c(I)c(C(=O)O)c(I)c(C(=O)NCCO)c1I` [b, 2,4,6-Triiodo-3-N-hydroxyethylcarbamyl-5-acetamido-benzoic acid, reference compound] as the molecule, how does the “Biliary clearance in cat, i.v.” value ([1]; i.v., 0.10 g I/kg, 30% I, Mgl salt) read?
Answer: 0

Question: What about the “Acute toxicity in mice, i.v.” value (mice; 30% I, Mgl salt) of the same molecule?
Answer: 5.6 grams I/kg

Question: What about the Osmolality [2] of the same molecule?
Answer: 1390 mosm/kg

Question: And the “Peripheral vasodilatation” value (femoral artery; 1.5 ml into collateral of femoral artery, 30% I, Mgl salt)?
Answer: +++

Question: For `CNC(=O)c1c(I)c(NC(=O)CNC(=O)c2c(I)cc(I)c(N(C)C(C)=O)c2I)c(I)c(C(=O)O)c1I` [Compound 18, 2,4,6-triiodo-3-N-methylcarbamyl-5-(2,4,6-triiodo-3-N-methylacetamido-benzoyl-glycyl)-amino-benzoic acid], which “Biliary clearance in cat, i.v.” value [1, 3] is on record?
Answer: ++++

Question: And the Osmolality [2]?
Answer: 390 mosm/kg

Question: What about the “Peripheral vasodilatation” value (femoral artery; [4]) of the same molecule?
Answer: ++++
